Values joined by “and” are separate entries in the source; they are usually repeats but may differ in a detail not shown here. Equal values may be shown once.
Columns and labels:
[1] = Percent change in the Vmax at a 10 uM concentration of the test compound; Minimal; type: ADME
[2] = Maximum observed percent change in Vmax and the concentration at which it was observed was determined at 100 uM; type: ADME
Canis familiaris [3] = species on record: Canis familiaris; assay: Concentration which caused a 20% increase in AP95 was determined.; type: functional, Canis lupus familiaris
Canis familiaris [4] = species on record: Canis familiaris; assay: Maximum observed percent change in action potential duration (APD) at 95% repolarization at 100 uM using standard microelectrode technique in isolated canine cardiac Purkinje fibers; type: functional, Canis lupus familiaris, Purkinje fiber
Canis familiaris [5] = species on record: Canis familiaris; assay: Percent change in action potential duration at 95% repolarization and 10 uM in isolated canine cardiac Purkinje fibres.; type: functional, Canis lupus familiaris, Purkinje fiber
[6] = Maximum observed percent change in Vmax and the concentration at which it was observed was determined at 100 uM; Minimal; type: ADME
[7] = Maximum observed percent change in Vmax and the concentration at which it was observed was determined at 30 uM; Minimal; type: ADME
Canis familiaris [8] = assay: Percent change in heart rate from control at 10 mg/kg, id; type: functional, Canis lupus familiaris; details: route intraduodenal
Canis familiaris [9] = assay: Percent change in heart rate from control at 3 mg/kg, iv; type: functional, Canis lupus familiaris
Canis familiaris [10] = assay: Percent change in heart rate from control at 30 mg/kg, id; type: functional, Canis lupus familiaris; details: route intraduodenal
Canis familiaris [11] = assay: Effective dose with the number of animals in PES efficacy model of anesthetized dog; Not effective in one animal; type: functional, Canis lupus familiaris
Canis familiaris [12] = assay: Effective dose with the number of animals in PES efficacy model of conscious dog; Not effective in one animal; type: functional, Canis lupus familiaris
Canis familiaris [13] = assay: In vivo electrophysiology was given as change in Function refractory period at 10 mg/kg, id; type: functional, Canis lupus familiaris; details: route intraduodenal
Canis familiaris [14] = assay: In vivo electrophysiology was given as change in Function refractory period at 3 mg/kg, iv; type: functional, Canis lupus familiaris
Canis familiaris [15] = assay: In vivo electrophysiology was given as change in Function refractory period at 30 mg/kg, id; type: functional, Canis lupus familiaris; details: route intraduodenal
Canis familiaris [16] = species on record: Canis familiaris; assay: Maximum observed percent change in action potential duration (APD) at 95% repolarization at 30 uM using standard microelectrode technique in isolated canine cardiac Purkinje fibers; type: functional, Canis lupus familiaris, Purkinje fiber
Canis familiaris [17] = assay: Number of animals in which sustained ventricular tachycardia or ventricular fibrillation was not inducible after drug administration among the number of animals tested (5) in PES efficacy model of anesthetized dog; type: functional, Canis lupus familiaris, Cardiac ventricle
Canis familiaris [18] = assay: Number of animals in which sustained ventricular tachycardia or ventricular fibrillation was not inducible after drug administration among the number of animals tested (9) in PES efficacy model of anesthetized dog; type: functional, Canis lupus familiaris, Cardiac ventricle
Canis familiaris [19] = species on record: Canis familiaris; assay: Concentration which caused a 20% increase in AP95 was determined.; Not reached; type: functional; details: Canis lupus familiaris
[20] = Maximum observed percent change in Vmax and the concentration at which it was observed was determined; Minimal; type: ADME
Canis familiaris [21] = species on record: Canis familiaris; assay: Maximum observed percent change in action potential duration (APD) at 95% repolarization at 10 uM using standard microelectrode technique in isolated canine cardiac Purkinje fibers; type: functional, Canis lupus familiaris, Purkinje fiber
[22] = Percent change in the Vmax at a 10 uM concentration of the test compound; type: ADME
Canis familiaris [23] = species on record: Canis familiaris; assay: Maximum observed percent change in action potential duration (APD) at 95% repolarization at 1 uM using standard microelectrode technique in isolated canine cardiac Purkinje fibers; type: functional, Canis lupus familiaris, Purkinje fiber
Canis familiaris [24] = species on record: Canis familiaris; assay: Concentration which caused a 20% increase in AP95 was determined. Lowest and highest values given in brackets; not reached; type: functional; details: Canis lupus familiaris
Canis familiaris [25] = species on record: Canis familiaris; assay: Maximum observed percent change in action potential duration (APD) at 95% repolarization at 3 uM using standard microelectrode technique in isolated canine cardiac Purkinje fibers; type: functional, Canis lupus familiaris, Purkinje fiber
[26] = Maximum observed percent change in Vmax and the concentration at which it was observed was determined at 50 uM; Minimal; type: ADME
[27] = Maximum observed percent change in Vmax and the concentration at which it was observed was determined at 10 uM; type: ADME
[28] = Maximum observed percent change in Vmax and the concentration at which it was observed was determined at 10 uM; Minimal; type: ADME
Canis familiaris [29] = assay: Effective dose with the number of animals in PES efficacy model of anesthetized dog; type: functional, Canis lupus familiaris
Canis familiaris [30] = assay: Effective dose with the number of animals in PES efficacy model of conscious dog; type: functional, Canis lupus familiaris
Canis familiaris [31] = assay: Effective dose with the number of animals in PES efficacy model of conscious dog; Not effective in two animals; type: functional, Canis lupus familiaris
Canis familiaris [32] = assay: Number of animals in which sustained ventricular tachycardia or ventricular fibrillation was not inducible after drug administration among the number of animals tested (6) in PES efficacy model of anesthetized dog; type: functional, Canis lupus familiaris, Cardiac ventricle
Canis familiaris [33] = assay: Number of animals in which sustained ventricular tachycardia or ventricular fibrillation was not inducible after drug administration among the number of animals tested (4) in PES efficacy model of anesthetized dog; type: functional, Canis lupus familiaris, Cardiac ventricle
[34] = Maximum observed percent change in Vmax and the concentration at which it was observed was determined at M[30] uM; Minimal; type: ADME

SMILES	Delta Vmax [1]	C20 APD95 (Canis familiaris [3]) [µM]	Max delta APD95 (Canis familiaris [4]) [%]	Delta APD95 (Canis familiaris [5]) [%]	max Delta Vmax [6]	max Delta Vmax [7]	Max delta APD95 (Canis familiaris [16]) [%]	C20 APD95 (Canis familiaris [19])	Max delta APD95 (Canis familiaris [21]) [%]	also measured
CCN(CC)[C@H]1CCCCC1NC(=O)c1ccc(-n2ccnc2)cc1.Cl (stereo not given in full)	Minimal	1.2	85	60	–	–	–	–	–	Max delta [2]: -46%
CCN(CC)CCNC(=O)c1ccc(NS(C)(=O)=O)cc1.Cl [SEMATILIDE HYDROCHLORIDE]	Minimal	4.4	65	31	Minimal	Minimal	51	–	–	HR (Canis familiaris [8]): -17; HR (Canis familiaris [9]): -23; HR (Canis familiaris [10]): -17; Effective dose (Canis familiaris [11]): 3 mg/kg; Effective dose (Canis familiaris [12]): 10 mg/kg; FRP (Canis familiaris [13]): 15%; FRP (Canis familiaris [14]): 19%; FRP (Canis familiaris [15]): 18%; No. effective (Canis familiaris [17]): 4; No. effective (Canis familiaris [18]): 8
O=C(NCCN(Cc1ccccc1)Cc1ccccc1)c1ccc(-n2ccnc2)cc1	Minimal	–	–	6	–	Minimal	6.5	Not reached	–	–
Cl.NCCNC(=O)c1ccc(-n2ccnc2)cc1	Minimal	–	13	1	–	–	–	Not reached	10	max Delta Vmax [20]: Minimal
CCN(CC)CCN(C(=O)c1ccc(-n2ccnc2)cc1)c1cccc2ccccc12	–	0.4	–	28	–	-31%	–	Not reached	46	Delta Vmax [22]: -14%; Max delta APD95 (Canis familiaris [23]): 39% and 18% and 24%
O=C(NC1CCNCC1)c1ccc(-n2ccnc2)cc1	Minimal	–	–	5	–	–	–	–	–	Max delta [7]: Minimal; C20 APD95 (Canis familiaris [24]): Not reached; Max delta APD95 (Canis familiaris [25]): 10%
CCN(CC)CCNC(=O)c1cccc(-n2ccnc2)c1.Cl.Cl	Minimal	4	–	27	Minimal	Minimal	60	–	50	–
CS(=O)(=O)O.O=C(c1ccc(-n2ccnc2)cc1)N1CCN(Cc2ccccc2)CC1	Minimal	0.9	–	46	–	Minimal	–	–	46	–
O=C(NC1CCN(Cc2ccccc2)CC1)c1ccc(-n2ccnc2)cc1	Minimal	0.7	–	75	–	Minimal	97	–	–	–
CCN(CC)CCCNC(=O)c1ccc(-n2ccnc2)cc1.Cl.Cl	–	3	–	40	–	–	48	–	–	–
O=C(c1ccc(-n2ccnc2)cc1)N1CCNCC1	Minimal	10.5	–	17	–	–	28	Not reached	–	Max delta [7]: Minimal
CCN1CCCC1CNC(=O)c1ccc(-n2ccnc2)cc1.Cc1ccc(S(=O)(=O)O)cc1 (stereo not given)	–	3	72	39	Minimal	–	–	–	–	Delta Vmax [22]: -13%; max Delta Vmax [2]: -26%
Cl.O=C(NCCNCc1ccccc1)c1ccc(-n2ccnc2)cc1	Minimal	1.2	59	41	–	–	–	–	41	max Delta Vmax [2]: -11%; max Delta Vmax [26]: Minimal
CCN(CC)CCN(Cc1ccccc1)C(=O)c1ccc(-n2ccnc2)cc1	Minimal	0.5	–	65	–	Minimal	65	–	–	–
CN1CCN(S(=O)(=O)c2ccc(-n3ccnc3)cc2)CC1	Minimal	39	–	9	Minimal	–	14	Not reached	24	max Delta Vmax [27]: -23%
CN1CCN(C(=O)c2ccc(-n3ccnc3)cc2)CC1.Cl.Cl	Minimal	3.7	–	32	–	Minimal	55	–	31	max Delta Vmax [28]: Minimal
CCN(CC)CCNC(=O)c1ccc(-n2ccnc2)cc1.Cl.Cl	Minimal	2.9	56	34	Minimal	Minimal	52.5	–	–	HR (Canis familiaris [8]): -15; HR (Canis familiaris [9]): -18; HR (Canis familiaris [10]): -29; Effective dose (Canis familiaris [29]): 1 mg/kg; Effective dose (Canis familiaris [11]): 10 mg/kg; Effective dose (Canis familiaris [30]): 0.3 mg/kg; Effective dose (Canis familiaris [31]): 3 mg/kg; FRP (Canis familiaris [13]): 12%; FRP (Canis familiaris [14]): 13%; FRP (Canis familiaris [15]): 19%; No effective/ no. tested (Canis familiaris [32]): 4; No. effective (Canis familiaris [33]): 3
CCN(CC)CCNC(=O)c1ccc(-c2ncc[nH]2)cc1.Cl.Cl	Minimal	65	31	7	–	–	–	–	–	max Delta Vmax [2]: -14%
CCN(CC)CCNC(=O)c1ccc(-n2ccnc2C)cc1.CS(=O)(=O)O	Minimal	–	16	4	Minimal	–	–	Not reached	13	max Delta Vmax [34]: Minimal

Source: ChEMBL document CHEMBL1124733, “Synthesis and cardiac electrophysiological activity of N-substituted-4-(1H-imidazol-1-yl)benzamides--new selective class III agents” (J Med Chem, 1990)
